This passage reports IC50, percent contraction and inhibition results from patent US5780505A, “Substituted N-arylmethylamino derivatives of cyclobutene-3, 4-diones” (American Home Products Corporation, priority 1997, dated 1998).

The assay concerns Isolated Rat Bladder Strips. As to the kind of experiment: Inhibition of contractions in isolated rat bladder strips (KCl-enhanced contractile activity; smooth muscle relaxation). It counts as cell-based, Sprague-Dawley rats. The note with it: for IC50 / percent contraction at 30 µM: 0.5 h; for IC50: isolated rat bladder strips, 15 mM additional KCl, 30 minute challenge, read-out: IC50 (50% inhibition of pre-drug contractile activity); for percent contraction at 30 µM / inhibition at 30 µM: Rattus norvegicus; for percent contraction at 30 µM: read-out: Percent contraction at 30 μM (C); for inhibition at 30 µM: read-out: Percent inhibition at 30 μM (I). The source says: The smooth muscle relaxing activity of the compounds of this invention was established in accordance with standard pharmaceutically accepted test procedures with representative compounds as follows:
Sprague-Dawley rats (150-200 g) are rendered unconscious by CO2 asphyxiation and then euthanized by cervical dislocation. The bladder is removed into warm (37 deg.C) physiological salt solution (PSS) of the following composition (mM): NaCl, 118.4; KCl, 4.7; CaCl2, 2.5; MgSO4, 4.7; H2 O, 1,2; NaHCO3, 24.9; KH2 PO4, 1,2; glucose, 11.1; EDTA, 0.023; gassed with […]; pH 7.4. The bladder is opened and then dut into strips 1-2 mm in width and 7-10 mm in length. The strips are subsequently suspended in a 10 mL tissue bath under an initial resting tension of 1.5 g. The strips are held in place by two surgical clips one of which is attached to a fixed hook while the other is attached to an isometric force transducer. […] The carbachol is then washed out and the tissue allowed to relax to its resting level of activity. Following a further 30 min period of recovery an additional 15 mM KCl are introduced into the tissue bath. This increase in KCl concentration results in a large increase in the amplitude of spontaneous contractions (and initiation of contractions in previously quiescent strips) superimposed upon a small increase in basal tone. Following stabilization of this enhanced level of contractile activity, incremental increases in the concentration of test compound or vehicle are introduced into the tissue bath. Contractile activity is measured for each compound or vehicle concentration during the last minute of a 30 minute challenge.
The isometric force developed by the bladder strips is measured using a […] to elicit 50% inhibition of pre-drug contractile activity (IC50 concentration) and is calculated from this concentration-response curve.

Structures are written as SMILES.

One may read the IC50 as the concentration that gives 50% inhibition. Regarding `CCc1cc(Br)ccc1CNc1c(N[C@H](C)C(C)(C)C)c(=O)c1=O` [Example 47, 3-(4-Bromo-2-ethyl-benzylamino)-4-(1,2,2-trimethyl-propylamino)-cyclobut-3-ene-1,2-dione], the IC50 was 16700 ± 6200 nM.

Take `CCc1cc(Br)ccc1CNc1c(NC(C)(C)C)c(=O)c1=O` [Example 48, 3-(4-Bromo-2-ethyl-benzylamino)-4-tert-butylamino-cyclobut-3-ene-1,2-dione]: the IC50 amounted to 270 ± 80 nM.

For `CCc1cc(Br)ccc1CNc1c(NC(C)(C)CC)c(=O)c1=O` [Example 49, 3-(4-Bromo-2-ethyl-benzylamino)-4-(1,1-dimethyl-propylamino)-cyclobut-3-ene-1,2-dione], the IC50 turned out to be 1000 ± 600 nM.

As to `CCc1cc(C#N)ccc1CNc1c(NC(C)(C)CC)c(=O)c1=O` [Example 50, 4-[(1,1-Dimethyl-propylamino-3,4-dioxo-cyclobut-1-enylamino)-methyl]-3-ethyl-benzonitrile], the 50% inhibitory concentration (IC50) was 105 ± 5 nM.

In general, inhibition refers to the change of the read-out against control, counted positive when it falls. For the compound `Cc1cccc(C)c1CNc1c(N[C@H](C)C(C)(C)C)c(=O)c1=O` [Example 51, 3-(2,6-Dimethyl-benzylamino)-4-(1,2,2-trimethyl-propylamino)-cyclobut-3-ene-1,2-dione], the IC50 was determined as 5600 nM, the percent contraction at 30 µM is 22 ± 3.2% and the inhibition at 30 µM worked out at 44%.

With `Cc1cccc(C)c1CNc1c(NC(C)(C)C)c(=O)c1=O` [Example 52, 3-tert-Butylamino-4-(2,6-dimethyl-benzylamino)-cyclobut-3-ene-1,2-dione], the IC50 turned out to be 5900 ± 1800 nM.

In the case of `CCC(C)(C)Nc1c(NCc2c(C)cccc2C)c(=O)c1=O` [Example 53, 3-(2,6-Dimethyl-benzylamino)-4-(1,1-dimethyl-propylamino)-cyclobut-3-ene-1,2-dione], the IC50 was 830 ± 660 nM.

With `Cc1cccc(C)c1CNc1c(NCC(F)(F)C(F)(F)F)c(=O)c1=O` [Example 54, 3-(2,6-Dimethyl-benzylamino)-4-(2,2,3,3,3-pentafluoro-propylamino)-cyclobut-3-ene-1,2-dione], the IC50 was found to be 17800 nM and the inhibition at 30 µM stood at 46%.

Regarding `Cc1cc(C#N)ccc1CNc1c(N[C@H](C)C(C)(C)C)c(=O)c1=O` [Example 55, 4-{[3,4-Dioxo-2-(1,2,2-trimethyl-propylamino)-cyclobut-1-enylamino]-methyl}-3-methyl-benzonitrile], the IC50 is 1500 ± 400 nM.

Take `COc1cc(C#N)ccc1CNc1c(N[C@H](C)C(C)(C)C)c(=O)c1=O` [Example 56, 4-{[3,4-Dioxo-2-(1,2,2-trimethyl-propylamino)-cyclobut-1-enylamino]-methyl}-3-methoxy-benzonitrile]: the IC50 was 950 ± 750 nM.

On to `COc1cccc(C)c1CNc1c(N[C@H](C)C(C)(C)C)c(=O)c1=O` [Example 57, 3-(2-Methoxy-6-methyl-benzylamino)-4-(1,2,2-trimethyl-propylamino)-cyclobut-3-ene-1,2-dione], for which the percent contraction at 30 µM came out at 160% and the inhibition at 30 µM came out at 29.3 ± 2.3%.

With `CCc1cccc(C)c1CNc1c(NC(C)(C)C)c(=O)c1=O` [Example 58, 3-tert-Butylamino-4-(2-ethyl-6-methyl-benzylamino)-cyclobut-3-ene-1,2-dione], the IC50 was 2300 ± 240 nM and the inhibition at 30 µM came to 25%.

Take `CC(C)(C)Nc1c(NCc2ccc(F)cc2C(F)(F)F)c(=O)c1=O` [Example 59, 3-tert-Butylamino-4-(4-fluoro-2-trifluoromethyl-benzylamino)-cyclobut-3-ene-1,2-dione]: the IC50 is 1800 ± 600 nM.

As for `CC(C)(C)Nc1c(NCc2ccc(F)cc2Cl)c(=O)c1=O` [Example 60, 3-tert-Butylamino-4-(2-chloro-4-fluoro-benzylamino)-cyclobut-3-ene-1,2-dione], the IC50 came out at 1400 ± 400 nM.

As to `C[C@@H](Nc1c(NCc2ccc(F)cc2C(F)(F)F)c(=O)c1=O)C(C)(C)C` [Example 61, 3-(4-Fluoro-2-trifluoromethyl-benzylamino)-4-(1,2,2-trimethyl-propylamino)-cyclobut-3-ene-1,2-dione], the IC50 amounted to 1700 ± 1000 nM.
